biological target: T1, AhR (Homo sapiens, UniProt P35869); assay: AhR direct luciferase reporter assay in HepG2 cells (HepG2 CYP1A1-LUC); format: cell-based; conditions: 18 hours, luciferase activity, no exogenous AhR agonist or 10 nM VAF347, read-out: AhR potency (AhR antagonistic potency, IC50)
T1 construct: The HepG2 CYP1A1-Luc cells do express basal luciferase activity that can be increased via potent AhR agonists or decreased via potent AhR antagonists; endogenous in cells; host or cells: HepG2 (DSMZ #ACC 180) stably carrying a human CYP1A1 promoter-firefly luciferase reporter
T1 sequence (P35869 11-848): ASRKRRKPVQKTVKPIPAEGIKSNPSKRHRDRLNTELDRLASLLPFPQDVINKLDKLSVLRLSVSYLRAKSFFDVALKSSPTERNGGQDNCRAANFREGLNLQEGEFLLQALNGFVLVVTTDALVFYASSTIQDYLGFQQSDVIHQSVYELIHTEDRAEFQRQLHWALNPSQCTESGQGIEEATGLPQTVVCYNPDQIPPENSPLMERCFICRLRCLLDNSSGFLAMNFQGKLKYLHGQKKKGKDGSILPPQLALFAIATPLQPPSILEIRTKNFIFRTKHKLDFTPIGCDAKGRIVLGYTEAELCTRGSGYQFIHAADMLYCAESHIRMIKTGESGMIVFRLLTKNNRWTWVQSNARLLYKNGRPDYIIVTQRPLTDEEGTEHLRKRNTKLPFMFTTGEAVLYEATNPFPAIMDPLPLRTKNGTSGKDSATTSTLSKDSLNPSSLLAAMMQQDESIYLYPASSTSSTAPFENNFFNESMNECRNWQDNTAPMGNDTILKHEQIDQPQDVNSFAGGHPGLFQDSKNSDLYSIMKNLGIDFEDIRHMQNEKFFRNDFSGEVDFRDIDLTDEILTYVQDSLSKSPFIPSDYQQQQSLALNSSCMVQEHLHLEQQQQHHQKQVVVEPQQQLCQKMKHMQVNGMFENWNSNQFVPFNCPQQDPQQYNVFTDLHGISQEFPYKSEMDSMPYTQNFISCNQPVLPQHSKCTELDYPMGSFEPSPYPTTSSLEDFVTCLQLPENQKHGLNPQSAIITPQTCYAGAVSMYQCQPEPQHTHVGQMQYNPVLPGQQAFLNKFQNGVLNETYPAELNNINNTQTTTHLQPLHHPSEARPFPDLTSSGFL
Description: AhR direct luciferase reporter assay in HepG2 cells.
A stable cell line (HepG2 CYP1A1-LUC) was used in which part of the promoter region of the human CYP1A1 gene is stably integrated into the genome of human HepG2 hepatocytes (DSZM #ACC 180) in front of a Photinus pyralis Firefly Luciferase gene. A 1210 bp fragment comprising part of the human CYP1A1 promoter was isolated via SacI and BglII restriction digestion from Lightswitch Clone S714555 (SwitchGearGenomics) and inserted between the SacI and BglII sites in pGL4.30 (Promega #E8481) in front of the Firefly Luciferase gene. The resulting vector was linearized with NotI, transfected into HepG2 cells (DSMZ #ACC 180) and stably transfected clones selected with 250 μg/ml Hygromycin B. After repetitive rounds of subcloning and testing for robustly regulated luciferase activity after AhR agonist stimulation, a stable clonal HepG2 CYP1A1-Luc cell line was selected.
The HepG2 CYP1A1-Luc cells do express basal luciferase activity that can be increased via potent AhR agonists or decreased via potent AhR antagonists, added to the growth medium of the cells.
In typical reporter assays performed with this cell line, cells are grown in 96-well plates and AhR modulators are titrated into the growth medium in serial dilutions in RPMI-1640 Medium (Sigma #R7509) supplemented with 8.6% fetal calf serum (Sigma #F7524) and containing either no exogenous AhR agonist or 10 nM of the potent AhR agonist VAF347 (Calbiochem #182690). Cells are further cultivated for 18 hours and luciferase activities are determined from extracts of cells in buffers containing D-Luciferine and ATP using a LUMIstar Optima microplate Luminometer from BMG Labtech.

| IC50 [µM] | SMILES |
| --- | --- |
| < 0.1 | Cn1ncnc1C(=O)Nc1cc2[nH]c(-c3cc(F)ccc3C(F)F)cc2cn1 [Example 1/8, N-(2-(2-(Difluoromethyl)-5-fluorophenyl)-1H-pyrrolo[3,2-c]pyridin-6-yl)-1-methyl-1H-1,2,4-triazole-5-carboxamide] |
| 0.1 to 1 | Cn1cncc1C(=O)Nc1cc2[nH]c(-c3ccccc3C(F)F)cc2cn1 [4/1] |
| < 0.1 | Cn1ncnc1C(=O)Nc1cc2[nH]c(-c3ccccc3C(F)F)c(Cl)c2cn1 [2/4] |
| < 0.1 | Cn1ncnc1C(=O)Nc1cc2[nH]c(-c3ccccc3C(F)F)c(F)c2cn1 [2/3] |
| 0.1 to 1 | CC(C)c1ccccc1-c1cc2cnc(NC(=O)c3ncnn3C)cc2[nH]1 [Example 2, N-(2-(2-Isopropylphenyl)-1H-pyrrolo[3,2-c]pyridin-6-yl)-1-methyl-1H-1,2,4-triazole-5-carboxamide] |
| < 0.1 | CCc1ccc(C(F)(F)F)c(-c2cc3cnc(NC(=O)c4ncnn4C)cc3[nH]2)c1 [Example 1/13, N-(2-(5-Ethyl-2-(trifluoromethyl)phenyl)-1H-pyrrolo[3,2-c]pyridin-6-yl)-1-methyl-1H-1,2,4-triazole-5-carboxamide] |
| 0.1 to 1 | Cn1ncnc1C(=O)Nc1cc2[nH]c(-c3cc(C(F)F)ccc3F)cc2cn1 [2/5] |
| > 1 | Cn1ncnc1C(=O)Nc1cc2[nH]c(-c3ccccc3C(C)(C)O)cc2cn1 [2/7] |
| 0.1 to 1 | CN(C(=O)c1ncnn1C)c1cc2[nH]c(-c3cc(F)ccc3C(F)F)cc2cn1 [Example 3, N-(2-(2-(Difluoromethyl)-5-fluorophenyl)-1H-pyrrolo[3,2-c]pyridin-6-yl)-N,1-dimethyl-1H-1,2,4-triazole-5-carboxamide] |
| < 0.1 | Cn1ncnc1C(=O)Nc1cc2[nH]c(-c3cc(C(F)(F)F)ccc3C(F)(F)F)cc2cn1 [Example 1/10, N-(2-(2,5-Bis(trifluoromethyl)phenyl)-1H-pyrrolo[3,2-c]pyridin-6-yl)-1-methyl-1H-1,2,4-triazole-5-carboxamide] |
| < 0.1 | Cc1ccccc1-c1cc2cnc(NC(=O)c3ncnn3C)cc2[nH]1 [2/1] |
| > 1 | Cn1cnnc1C(=O)Nc1cc2[nH]c(-c3ccccc3C(F)F)cc2cn1 [Example 1/5, N-(2-(2-(Difluoromethyl)phenyl)-1H-pyrrolo[3,2-c]pyridin-6-yl)-4-methyl-4H-1,2,4-triazole-3-carboxamide] |
| < 0.1 | Cn1ncnc1C(=O)Nc1cc2[nH]c(-c3ccccc3C(F)(F)F)cc2cn1 [Example 1/2, 1-Methyl-N-(2-(2-(trifluoromethyl)phenyl)-1H-pyrrolo[3,2-c]pyridin-6-yl)-1H-1,2,4-triazole-5-carboxamide] |
| < 0.1 | Cn1ncnc1C(=O)Nc1cc2[nH]c(-c3cc(C#N)ccc3C(F)(F)F)cc2cn1 [2/6] |
| 0.1 to 1 | Cc1ccccc1-c1cc2cnc(NC(=O)c3ccnn3C)cc2[nH]1 [Example 1, 1-Methyl-N-(2-(o-tolyl)-1H-pyrrolo[3,2-c]pyridin-6-yl)-1H-pyrazole-5-carboxamide] |
| < 0.1 | Cn1ccnc1C(=O)Nc1cc2[nH]c(-c3ccccc3C(F)F)cc2cn1 [4/2] |
| < 0.1 | Cn1nccc1C(=O)Nc1cc2[nH]c(-c3ccccc3C(F)(F)F)cc2cn1 [Example 1/1, 1-Methyl-N-(2-(2-(trifluoromethyl)phenyl)-1H-pyrrolo[3,2-c]pyridin-6-yl)-1H-pyrazole-5-carboxamide] |
| < 0.1 | Cn1ncnc1C(=O)Nc1cc2[nH]c(-c3cc(C4CC4)ccc3C(F)(F)F)cc2cn1 [Example 1/11, N-(2-(5-Cyclopropyl-2-(trifluoromethyl)phenyl)-1H-pyrrolo[3,2-c]pyridin-6-yl)-1-methyl-1H-1,2,4-triazole-5-carboxamide] |
| < 0.1 | O=C(Nc1cc2[nH]c(-c3ccccc3C(F)(F)F)cc2cn1)c1ccccn1 [Example 1/3, N-(2-(2-(Trifluoromethyl)phenyl)-1H-pyrrolo[3,2-c]pyridin-6-yl) picolinamide] |
| 0.1 to 1 | Cn1ncnc1C(=O)Nc1cc2[nH]c(-c3ccoc3C(F)F)cc2cn1 [Example 1/9, N-(2-(2-(Difluoromethyl)furan-3-yl)-1H-pyrrolo[3,2-c]pyridin-6-yl)-1-methyl-1H-1,2,4-triazole-5-carboxamide] |
| < 0.1 | Cn1ncnc1C(=O)Nc1cc2[nH]c(-c3ccccc3C(F)F)cc2cn1 [Example 1/6, N-(2-(2-(Difluoromethyl)phenyl)-1H-pyrrolo[3,2-c]pyridin-6-yl)-1-methyl-1H-1,2,4-triazole-5-carboxamide] |
| < 0.1 | Cc1scnc1C(=O)Nc1cc2[nH]c(-c3ccccc3C(F)F)cc2cn1 [Example 4, N-(2-(2-(Difluoromethyl)phenyl)-1H-pyrrolo[3,2-c]pyridin-6-yl)-5-methylthiazole-4-carboxamide] |
| 0.1 to 1 | Cn1ncnc1C(=O)Nc1cc2[nH]c(-c3cc(F)c(F)cc3C(F)F)cc2cn1 [Example 1/12, N-(2-(2-(Difluoromethyl)-4,5-difluorophenyl)-1H-pyrrolo[3,2-c]pyridin-6-yl)-1-methyl-1H-1,2,4-triazole-5-carboxamide] |
| 0.1 to 1 | Cn1ncnc1C(=O)Nc1cc2[nH]c(-c3ccccc3C(F)F)c(C#N)c2cn1 [Example 5, N-(3-Cyano-2-(2-(difluoromethyl)phenyl)-1H-pyrrolo[3,2-c]pyridin-6-yl)-1-methyl-1H-1,2,4-triazole-5-carboxamide] |
| 0.1 to 1 | Cn1ncnc1C(=O)Nc1cc2[nH]c(-c3c(Cl)cccc3Cl)cc2cn1 [2/2] |
| < 0.1 | Cc1ocnc1C(=O)Nc1cc2[nH]c(-c3ccccc3C(F)F)cc2cn1 [4/3] |
| < 0.1 | Cn1cnnc1C(=O)Nc1cc2[nH]c(-c3cc(F)ccc3C(F)(F)F)cc2cn1 [Example 1/7, N-(2-(5-Fluoro-2-(trifluoromethyl)phenyl)-1H-pyrrolo[3,2-c]pyridin-6-yl)-4-methyl-4H-1,2,4-triazole-3-carboxamide] |
| < 0.1 | Cn1ncnc1C(=O)Nc1cc2[nH]c(-c3cc(F)ccc3C(F)(F)F)cc2cn1 [Example 1/4, N-(2-(5-Fluoro-2-(trifluoromethyl)phenyl)-1H-pyrrolo[3,2-c]pyridin-6-yl)-1-methyl-1H-1,2,4-triazole-5-carboxamide] |

From patent US11376241B2, “Aryl hydrocarbon receptor (AhR) modulator compounds” (PHENEX PHARMACEUTICALS AG, priority 2017, dated 2022)
